Measured values published in PMC7927863 (Antimicrobial Agents and Chemotherapy, 2020).
Where a name gives a salt, the structure may show the parent alone. Read-outs that look alike come from different tables or passages of the source.

How the values were obtained:
SARS-CoV-2 [1] = assay type: cell-based; conditions: for antiviral effect on CoV-2 replication: up to 20 μM; for virus-yield decrease, CoV-2: nontoxic single dose, 48 h
HCoV-OC43 = experiment: microbe, parasite or virus in culture; assay type: cell-based; conditions: for EC50: Betacoronavirus 1, OC43, Huh-7, read-out: Antiviral activity against HCoV-OC43 Huh7 cells EC50; for antiviral activity against HCoV-OC43: up to 20 μM
in vitro [2] = conditions: African green monkey
in vitro [3] = conditions: human
in vitro [4] = conditions: human; remark: listed apart in the source
in vitro [5] = conditions: human; remark: listed apart in the source
SARS-CoV-2 [6] = conditions: read-out: reported EC50; Vero E6 cells; cited from earlier work
COVID-19 = conditions: 1,063 hospitalized patients; placebo 15 days; P < 0.0001; cited from earlier work
CoV-2 and HCoV-OC43 = experiment: sofosbuvir antiviral evaluation in additional cells; assay type: cell-based

SMILES | EC50 (HCoV-OC43) [µM] | CC50 (in vitro [2]) [µM] | CC50 (in vitro [3]) [µM] | CC50 (in vitro [4]) [µM] | CC50 (in vitro [5]) [µM] | antiviral effect on CoV-2 replication (SARS-CoV-2 [1]; Vero cells) | also measured
C[C@@]1(O)[C@H](O)[C@@H](CO)O[C@H]1n1cc(F)c2c(N)ncnc21 [Compound 2, 7-deaza-7-fluoro-2′-C-methyladenosine] | 6.7 ± 1.1 | > 100 |  |  |  |  | selectivity index (SI) for SARS-CoV-2 (SARS-CoV-2 [1]): > 10; toxicity in Vero cells (Vero CCL-81 cells): no toxicity
NC(=O)c1nc(F)c[nH]c1=O [Compound 8, favipiravir] | 6.8 | > 100 | > 100 | > 100 | > 100 |  | 
C[C@@]1(O)[C@H](O)[C@@H](CO)O[C@H]1n1ccc(N)nc1=O [Compound 1, 2′-C-methylcytidine] | 10 ± 0.7 | > 100 |  |  |  |  | selectivity index (SI) for SARS-CoV-2 (SARS-CoV-2 [1]; CC50/EC50, Vero cells): > 10; toxicity in Vero cells (Vero CCL-81 cells; up to 100 μM): no toxicity
CC(C)OC(=O)OCOP(=O)(CO[C@H](C)Cn1cnc2c(N)ncnc21)OCOC(=O)OC(C)C [Compound 16, tenofovir disoproxil fumarate] | > 20 | > 100 |  |  |  | did not show any activity | antiviral activity against HCoV-OC43 (HCoV-OC43; Huh-7 cells): did not show any activity
CCC(CC)COC(=O)[C@H](C)N[P@](=O)(OC[C@H]1O[C@@](C#N)(c2ccc3c(N)ncnn23)[C@H](O)[C@@H]1O)Oc1ccccc1 [Compound 10, remdesivir] | 0.04 ± 0.1 | > 100 |  |  |  |  | selectivity index (SI) for SARS-CoV-2 (SARS-CoV-2 [1]; CC50/EC50, Vero cells): > 100; virus-yield decrease, CoV-2 (SARS-CoV-2 [1]; Vero cells): > 90%; selectivity index (SI) for HCoV-OC43 (HCoV-OC43; CC50/EC50, Huh-7 cells): 52; EC50 (SARS-CoV-2 [6]): 1.85 µM; time to recovery (COVID-19): 11 days
N#C[C@@]1(c2ccc3c(N)ncnn23)O[C@H](CO)[C@@H](O)[C@H]1O [Compound 11, GS-441524] | > 10 | > 100 | > 100 | > 100 | > 100 |  | selectivity index (SI) for SARS-CoV-2 (SARS-CoV-2 [1]; CC50/EC50, Vero cells): 12; virus-yield decrease, CoV-2 (SARS-CoV-2 [1]; Vero cells): > 90%; EC50 (SARS-CoV-2 [6]): 0.47 µM
CC(C)OC(=O)[C@H](C)N[P@](=O)(OC[C@H]1O[C@@H](n2ccc(=O)[nH]c2=O)[C@](C)(F)[C@@H]1O)Oc1ccccc1 [Compound 4, sofosbuvir] | > 20 | > 100 | > 100 | > 100 | > 100 | no antiviral effect | EC50 (CoV-2 and HCoV-OC43; Betacoronavirus 1, OC43, Calu-3, in Homo sapiens, read-out: EC50 in Calu3 cells): > 20 µM; EC50 (CoV-2 and HCoV-OC43; Betacoronavirus 1, OC43, RD, in Homo sapiens, read-out: EC50 in RD cells): > 20 µM; EC50 (CoV-2 and HCoV-OC43; Caco-2, read-out: EC50 in Caco-2 cells): > 20 µM
Nc1ccn([C@@H]2O[C@@](CO)(CCl)[C@@H](O)[C@H]2F)c(=O)n1 [Compound 5, ALS-8112] | > 20 | > 100 |  |  |  | did not have a marked effect | 
Nc1ccn([C@@H]2CS[C@H](CO)O2)c(=O)n1 [Compound 13, lamivudine] | > 20 | > 100 | > 100 | > 100 | > 100 | did not show any activity | antiviral activity against HCoV-OC43 (HCoV-OC43; Huh-7 cells): did not show any activity
C=C1[C@H](CO)[C@@H](O)C[C@@H]1n1cnc2c(=O)[nH]c(N)nc21 [Compound 9, entecavir] | > 20 | > 100 |  |  |  |  | 
Nc1nc(=O)n([C@@H]2CS[C@H](CO)O2)cc1F [Compound 14, emtricitabine] | > 20 | > 100 | > 100 | > 100 | > 100 |  | 
NC(=O)c1ncn([C@@H]2O[C@H](CO)[C@@H](O)[C@H]2O)n1 [Compound 12, ribavirin] | 20.6 | > 100 |  |  |  | did not exhibit a marked inhibitory effect | antiviral activity against HCoV-OC43 (HCoV-OC43; Huh-7 cells): did not exhibit a marked inhibitory effect
CC(C)OC(=O)[C@H](C)N[P@](=O)(CO[C@H](C)Cn1cnc2c(N)ncnc21)Oc1ccccc1 [Compound 15, tenofovir alafenamide] | > 20 | 36.4 |  |  |  |  | 
